Results: patent publication US20220257592A1, “METHODS OF TREATING CANCER” (HOFFMANN-LA ROCHE INC., priority 2019, published 2022)

Assay: Clinical trial safety, ALKA, STARTRK-1, STARTRK-2, STARTRK-NG (interim, N=355)
[1] = may be underestimated, 4.5% had no post-treatment liver function tests
[2] = patients with at least one post-baseline ECG assessment
[3] = worsening from baseline, NCI CTCAE v5.0

CN1CCN(c2ccc(C(=O)Nc3n[nH]c4ccc(Cc5cc(F)cc(F)c5)cc34)c(NC3CCOCC3)c2)CC1 [Entrectinib, N-[5-(3,5-difluorobenzyl)-1H-indazol-3-yl]-4-(4-methyl-piperazin-1-yl)-2-(tetrahydro-pyran-4-ylamino)-benzamide]
Cognitive impairment: mental status changes (human, in vivo): 2%
Discontinuation due to hyperuricemia (human, in vivo): No patients discontinued
Dose interruption due to anemia (human, in vivo): 3.1%
Dose interruption due to cognitive disorder (human, in vivo): 2%
Dose interruption due to diarrhea (human, in vivo): 2.8%
Dose interruption due to dizziness (human, in vivo): 2.5%
Dose interruption due to dyspnea (human, in vivo): 2.3%
Dose interruption due to fatigue (human, in vivo): 3.7%
Dose interruption due to increased blood creatinine (human, in vivo): 4%
Dose interruption due to nausea (human, in vivo): 2.3%
Dose interruption due to neutropenia (human, in vivo): 2%
Dose interruption due to pneumonia (human, in vivo): 2.3%
Dose interruption due to pyrexia (human, in vivo): 2.8%
Dose interruptions due to adverse reactions (human, in vivo): 46%
Dose reduction due to anemia (human, in vivo): 1.7%
Dose reduction due to dizziness (human, in vivo): 3.9%
Dose reduction due to fatigue (human, in vivo): 2.3%
Dose reduction due to increased blood creatinine (human, in vivo): 3.1%
Dose reduction due to increased weight (human, in vivo): 1.4%
Dose reductions due to adverse reactions (human, in vivo): 29%
Entrectinib discontinued due to increased AST or ALT (human, in vivo): 0.8%
Grade 3 cognitive adverse reactions (human, in vivo): 4.5%
Grade 3 mood disorders (human, in vivo): 0.6%
Grade 3 or 4 adverse reactions (human, in vivo): 60%
Grade 3 or 4 cognitive disorders (human, in vivo): 4.5%
Grade 3 or 4 diarrhea (human, in vivo): 2%
Grade 3 or 4 dyspnea (human, in vivo): 6%
Grade 3 or 4 fatigue/asthenia (human, in vivo): 5%
Grade 3 or 4 hypotension (human, in vivo): 2.8%
Grade 3 or 4 hypoxia (human, in vivo): 3.4%
Grade 3 or 4 increased weight (human, in vivo): 7%
Grade 3 or 4 lung infection (human, in vivo): 5%
Grade 3 or 4 pleural effusion (human, in vivo): 3.1%
Grade 3 or 4 pulmonary embolism (human, in vivo): 3.4%
Grade 3 or 4 syncope (human, in vivo): 2.5%
Grade 3 or 4 urinary tract infection (human, in vivo): 2.5%
Grade 3 sleep disturbances (human, in vivo): 0.6%
Hyperuricemia resolved following urate-lowering medication without interruption or dose reduction (human, in vivo): 73%
Incidence of CNS adverse reactions in patients with and without CNS metastases (human, in vivo): similar
Mood disorders: agitation (human, in vivo): 2%
Mood disorders: anxiety (human, in vivo): 4.8%
Mood disorders: depression (human, in vivo): 2.8%
Most common adverse reactions (≥20%) (human, in vivo): fatigue, constipation, dysgeusia, edema, dizziness, diarrhea, nausea, dysesthesia, dyspnea, myalgia, cognitive impairment, increased weight, cough, vomiting, pyrexia, arthralgia and vision disorders
Myocarditis in the absence of CHF (human, in vivo): 0.3%
Permanent discontinuation due to an adverse reaction (human, in vivo): 9%
Permanent discontinuation due to cardio-respiratory arrest (human, in vivo): < 1%
Permanent discontinuation due to dyspnea (human, in vivo): < 1%
Permanent discontinuation due to fatigue (human, in vivo): < 1%
Permanent discontinuation due to pneumonia (human, in vivo): < 1%
Serious adverse reaction: dyspnea (human, in vivo): 3.7%
Serious adverse reaction: pleural effusion (human, in vivo): 3.4%
Serious adverse reaction: pneumonia (human, in vivo): 3.9%
Serious adverse reaction: pulmonary embolism (human, in vivo): 2.3%
Serious adverse reaction: pyrexia (human, in vivo): 2%
Serious adverse reaction: respiratory failure (human, in vivo): 2%
Serious adverse reaction: sepsis (human, in vivo): 2.5%
Serious adverse reactions (human, in vivo): 39%
Sleep disturbances: hypersomnia (human, in vivo): 1.1%
Sleep disturbances: insomnia (human, in vivo): 7%
Sleep disturbances: sleep disorder (human, in vivo): 0.3%
Sleep disturbances: somnolence (human, in vivo): 7%
Vision changes, Grade 1 (human, in vivo): 82%
Vision changes, Grade 2 (human, in vivo): 14%
Vision changes, Grade 3 (human, in vivo): 0.8%
Vision disorders: blurred vision (human, in vivo): 8.7%
Vision disorders: cataract (human, in vivo): 1.1%
Vision disorders: diplopia (human, in vivo): 3.1%
Vision disorders: photophobia (human, in vivo): 5.1%
Vision disorders: photopsia (human, in vivo): 1.3%
Vision disorders: visual impairment (human, in vivo): 2%
Vision disorders: vitreous floaters (human, in vivo): 1.1%
Grade 4 hyperuricemia (including one patient who died due to tumor lysis syndrome): 1.7%
Grade 3-4 increased ALT [1]: 2.8%
Grade 3-4 increased AST [1]: 2.5%
Cognitive impairment symptoms occurred within 3 months of starting entrectinib (of the 96 patients with cognitive impairment): 77%
QTcF interval >500 ms [2]: 0.6%
QTcF interval prolongation of >60 ms after starting entrectinib [2]: 3.1%
Mood disorders, median time to onset (range: 1 day to 9 months): 1 month
Increased ALT, median time to onset (range: 1 day to 9.2 months): 2 weeks
Increased AST, median time to onset (range: 1 day to 29.5 months): 2 weeks
Completed suicide (reported 11 days after treatment had ended): One
Grade 4 myocarditis after one dose of entrectinib (resolved after discontinuation and high-dose corticosteroids): One
Increased AST or ALT leading to dose reductions (second value of 'respectively'): 0.8%
Laboratory: Anemia, All Grades (worsening from baseline): 67%
Laboratory: Anemia, Grade 3 or 4 (worsening from baseline): 9%
Laboratory: Hyperkalemia, All Grades (worsening from baseline): 25%
Laboratory: Hyperkalemia, Grade 3 or 4 (worsening from baseline): 1.5%
Laboratory: Hypernatremia, All Grades (worsening from baseline): 35%
Laboratory: Hypernatremia, Grade 3 or 4 (worsening from baseline): 0.9%
Laboratory: Hyperuricemia, All Grades (worsening from baseline): 52%
Laboratory: Hyperuricemia, Grade 3 or 4 (worsening from baseline): 10%
Laboratory: Hypoalbuminemia, All Grades (worsening from baseline): 28%
Laboratory: Hypoalbuminemia, Grade 3 or 4 (worsening from baseline): 2.9%
Laboratory: Hypocalcemia, All Grades (worsening from baseline): 34%
Laboratory: Hypocalcemia, Grade 3 or 4 (worsening from baseline): 1.8%
Laboratory: Hypophosphatemia, All Grades (worsening from baseline): 30%
Laboratory: Hypophosphatemia, Grade 3 or 4 (worsening from baseline): 7%
Laboratory: Increased ALT, All Grades (worsening from baseline): 38%
Laboratory: Increased ALT, Grade 3 or 4 (worsening from baseline): 2.9%
Laboratory: Increased AST, All Grades (worsening from baseline): 44%
Laboratory: Increased AST, Grade 3 or 4 (worsening from baseline): 2.7%
Laboratory: Increased alkaline phosphatase, All Grades (worsening from baseline): 25%
Laboratory: Increased alkaline phosphatase, Grade 3 or 4 (worsening from baseline): 0.9%
Laboratory: Increased amylase, All Grades (worsening from baseline): 26%
Laboratory: Increased amylase, Grade 3 or 4 (worsening from baseline): 5.4%
Laboratory: Increased lipase, All Grades (worsening from baseline): 28%
Laboratory: Increased lipase, Grade 3 or 4 (worsening from baseline): 10%
Laboratory: Lymphopenia, All Grades (worsening from baseline): 40%
Laboratory: Lymphopenia, Grade 3 or 4 (worsening from baseline): 12%
Laboratory: Neutropenia, All Grades (worsening from baseline): 28%
Laboratory: Neutropenia, Grade 3 or 4 (worsening from baseline): 7%
Laboratory: Hyperglycemia, Grade 3 or 4 [3]: 3.8%
Laboratory: Increased creatinine, All Grades [3]: 73%
Laboratory: Increased creatinine, Grade 3 or 4 [3]: 2.1%
